# From PubChem BioAssay (NCI)
# “And” between values parts separate entries of the source, which are not always exact repeats. Equal entries are not always repeated.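 96-well plates; 48 h exposure; 5 concentrations. Endpoints by linear interpolation between flanking doses. Not reached: highest tested concentration assigned. GI50: concentration for 50% inhibition of growth. The concentration for full growth arrest is given as TGI.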
# What was measured:
# Experiment in all cases: DTP human tumour cell line panel, 48 h
# [1] = tested on: SK-MEL-28 melanoma
# [2] = tested on: SF-295 CNS
# [3] = tested on: NCI-H23 lung
# [4] = tested on: KM12 colon
# [5] = tested on: K-562 leukemia
# [6] = tested on: SK-MEL-5 melanoma
# [7] = tested on: HOP-92 NSCLC
# [8] = tested on: DMS 273 small cell lung
# [9] = tested on: LXFL 529 NSCLC
# [10] = tested on: T-47D breast
SMILES,TGI [1] [µM],TGI [2] [µM],TGI [3] [µM],TGI [4] [µM],TGI [5] [µM],TGI [6] [µM],TGI [7],TGI [8] [µM],TGI [9] [µM],TGI [10] [µM],GI50 [1],GI50 [9] [µM],GI50 [6],GI50 [7],GI50 [2] [µM],GI50 [3] [µM],GI50 [4] [µM],GI50 [5] [µM],GI50 [10] [µM]
COCC1N=C(c2cc(OC)c(OC)c(OC)c2-c2cc3c(cc2C2OCCCO2)OCO3)O[C@H]1c1ccccc1 (stereo not given in full),> 100,> 100,> 100,> 100,> 100,> 100,> 100 µM,> 100,,,,,,,,,,,
CC1=C(C(=O)Nc2cccc(Cl)c2)C(c2ccc([N+](=O)[O-])cc2)C(C(=O)Nc2cccc(Cl)c2)=C(C)N1,> 100,58.4,62.3,52.9,> 100,33.8,31.1 µM,,> 100,,,,,,,,,,
O=c1[nH]nc2ccccc2c1Cl,,46.9,35.9,26.6,24.7,,12.3 µM,35.5,,,,,,,,,,,
CCc1ccccc1N1CCN(C(=O)c2cc(OC)c(OC)c(OC)c2)CC1,> 70.2,0.0341,23.3,2.64,39.4,3.79,12.3 µM,> 100,,67.9,,,,,,,,,
COC(C(=O)C(O)C(C)O)C1Cc2cc3cc(OC4CC(OC(C)=O)C(OC5CC(O)C(OC)C(C)O5)C(C)O4)cc(O)c3c(O)c2C(=O)C1OC1CC(OC2CC(OC3CC(C)(O)C(OC(=O)C(C)C)C(C)O3)C(O)C(C)O2)C(O)C(C)O1 (stereo not given),,,,,,,0.288 µM and 0.039 µM,,0.124,,0.000911 µM and 0.00146 µM,0.0174,0.0094 µM and 0.00174 µM,0.0383 µM and 0.00429 µM,,,,,
[C-]#[O+].[C-]#[O+].[C-]#[O+].[C-]#[O+].[Ir].[Ir].[O-]c1ccc2ccccc2c1C=Nc1ccc(N=Cc2c([O-])ccc3ccccc23)cc1,,> 100,> 100,> 100,> 100,> 100,> 100 µM,,> 100,,,> 100,> 100 µM,40 µM,> 100,> 100,> 100,40.1,
Cc1ccc(S(=O)(=O)NNC(=O)c2sc(-c3nc(C)c(C(=O)NNS(=O)(=O)c4ccc(C)cc4)s3)nc2C)cc1,> 100,> 100,> 100,> 100,> 100,> 100,> 100 µM,,> 100,,,,,,,,,,
CC1CC2C(=O)N(c3ccccc3)C(=O)C2c2c1c1ccccc1n2Cc1ccccc1 (stereo not given),,> 100,,> 100,> 100,> 100,> 100 µM,,> 100,,,,,,,,,,
CC(CN1CCN(C)CC1)CN1c2ccccc2Sc2ccc(C(F)(F)F)cc21 (stereo not given),3.42,4.31,4.05,3.52,4.21,2.99,4.38 µM,,,4.55,1.91 µM,,1.61 µM,1.25 µM,1.97,1.83,1.95,1.76,1.89
Cc1nc2sc(C(=O)Nc3cccc4ccccc34)c(N)c2cc1C(=O)/C=C/c1ccccc1,5.91,3.89,4.07,1.25,> 50,1.69,8.97 µM,,,> 11,0.667 µM,,0.379 µM,0.37 µM,0.514,0.862,0.368,0.191,0.724
C[C@H]1[C@H](C)CC[C@]2(C(=O)N3CCN(C)CC3)CC[C@]3(C)C(=CC[C@@H]4[C@@]5(C)C/C(=C/c6cccnc6)C(=O)C(C)(C)[C@@H]5CC[C@]43C)[C@H]12,2.76,3.01,3.19,2.56,> 100,2.54,1.84 µM,,,2.16,1.4 µM,,1.14 µM,0.446 µM,1.6,1.57,0.976,1.67,0.511
COc1ccc(C(=O)/C=C/c2c(C(F)(F)F)nc3sccn23)cc1OC,> 100,22.6,27.9,11.1,> 100,> 100,59.6 µM,,,40.7,8.48 µM,,4.2 µM,5.87 µM,3.14,2.78,1.97,2.25,2.9
COc1ccc(C/C(C)=C(\c2ccc(OCCN3CCOCC3)cc2)c2ccc(OC(=O)Cc3ccccc3)cc2)cc1,1.06,1.12,3.3,3.37,1.66,0.93,0.901 µM,,,1.28,0.555 µM,,0.485 µM,0.28 µM,0.58,0.823,1.14,0.456,0.483
O=C(O)CCSCCCN1C(=O)c2ccccc2C1=O,> 100,> 100,> 100,> 100,> 100,> 100,> 100 µM,,> 100,,,,,,,,,,
NC(=NC1CCCCCCC1)c1ccc(N2CCN(c3ccc(C(N)=NC4CCCCCCC4)cc3)CC2)cc1,22.8,6.09,45.8,19.1,> 100,7.66,79.9 µM,,,> 100,6.75 µM,,1.72 µM,25.1 µM,2.04,6.8,5.3,35.4,25.8
COc1ccc(-c2nnc(SCC(=O)Nc3ccc(/C(C)=N\O)cc3)n2-c2ccccc2)cc1OC,> 100,37.7,> 100,> 100,> 100,> 100,6.42 µM,,,> 100,> 100 µM,,> 100 µM,2.12 µM,3.39,12.9,> 100,> 100,9.45
C/C(=C\c1ccn(-c2ccc(N)c(F)c2)n1)[C@@H]1C[C@@H]2O[C@]2(C)CCC[C@H](C)[C@H](O)[C@@H](C)C(=O)C(C)(C)[C@@H](O)CC(=O)O1,> 50,> 50,> 50,> 50,> 50,6.54,> 44.4 µM,,,> 50,7.03 µM,,0.00882 µM,0.0119 µM,0.0205,0.0138,0.00857,0.00912,0.0249
C=C(C)[C@@H]1CC[C@]2(C(=O)NCCNCCNCCN)CC[C@]3(C)[C@H](CC[C@@H]4[C@@]5(C)CC[C@H](O)C(C)(C)[C@@H]5CC[C@]43C)[C@@H]12,30.6,30.3,32,26.2,> 100,23.4,19.7 µM,,,32.3,16 µM,,11.1 µM,4.61 µM,13.8,14.7,6.81,6.9,10.9
CS(=O)(=O)c1ccc(-c2cnc(N)c(C(=O)Nc3ccccc3)n2)cc1,> 100,> 100,> 100,> 100,> 100,> 100,> 100 µM,,,> 100,98.6 µM,,28.7 µM,24.3 µM,24.2,4.84,> 100,5.34,> 100
O=Cc1cn(Cc2cccc(Cl)c2)c2ccccc12,31.1,14.2,26.9,35.1,> 56.7,17.4,20.8 µM,,,13.4,15.9 µM,,4.1 µM,6.19 µM,0.948,9.33,14.7,2.97,0.736
C=C1CC2(C[C@@H](c3ccccc3)O[C@@H](c3ccccc3)C2)OC1=O (stereo not given in full),3.83,26.8,7.72,15.5,7.51,8.83,9.81 µM,,,3.68,,,,,,,,,
CCCCCCC#Cc1ccccc1C#CCO,45.3,30.2,9.74,37.6,> 100,30.8,26.7 µM,,,35.1,18 µM,,16.8 µM,13.8 µM,16.2,3.69,18.6,28.8,16.3
Cn1c(=O)c(Oc2ccc(F)cc2F)cc2cnc(NC(CO)CO)nc21,> 25,> 25,> 25,> 25,> 25,> 25,> 25 µM,,,> 25,> 25 µM,,> 25 µM,14.7 µM,> 25,> 25,> 25,> 25,> 25
CC(C)C[C@H](NC(=O)[C@H]1O[C@@H]1C(=O)O)C(=O)NCCc1ccc(O)cc1,> 100,> 100,> 100,> 100,> 100,> 100,> 100 µM,,,> 100,> 100 µM,,> 100 µM,> 100 µM,> 100,> 100,> 100,> 100,> 100
